Data on 1 compound can be found in PMC4139061, “Structural basis of nucleoside and nucleoside drug selectivity by concentrative nucleoside transporters” (eLife, 2014).

Where “and” joins values, the source holds several entries; their conditions need not be identical. Identical values can stand only once.

For one assay, the target named is T1, hCNT1 (Homo sapiens, UniProt O00337).
T1 sequence (O00337 1-649): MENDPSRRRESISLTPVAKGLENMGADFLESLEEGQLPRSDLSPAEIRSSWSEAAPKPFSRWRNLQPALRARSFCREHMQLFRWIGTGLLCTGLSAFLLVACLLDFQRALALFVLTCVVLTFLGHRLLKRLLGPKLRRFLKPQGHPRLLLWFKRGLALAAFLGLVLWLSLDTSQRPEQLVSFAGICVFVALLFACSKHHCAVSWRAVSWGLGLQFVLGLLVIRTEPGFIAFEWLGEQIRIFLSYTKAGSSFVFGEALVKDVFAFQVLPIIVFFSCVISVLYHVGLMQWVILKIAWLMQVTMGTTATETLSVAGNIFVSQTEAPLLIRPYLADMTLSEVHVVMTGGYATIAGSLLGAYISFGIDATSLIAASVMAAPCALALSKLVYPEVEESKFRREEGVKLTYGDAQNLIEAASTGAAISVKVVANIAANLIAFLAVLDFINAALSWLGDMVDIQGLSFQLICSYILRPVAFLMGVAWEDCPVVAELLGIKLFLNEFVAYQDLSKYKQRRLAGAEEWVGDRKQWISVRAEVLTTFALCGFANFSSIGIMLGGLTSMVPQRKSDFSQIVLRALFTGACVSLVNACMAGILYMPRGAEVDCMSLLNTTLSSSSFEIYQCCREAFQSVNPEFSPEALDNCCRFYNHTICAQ
In words: two-electrode voltage-clamp of Na+ currents / total charge in Xenopus oocytes expressing hCNT1. It is filed as cell-based. The source says: To detect nucleoside transport by hCNTs, we turned to two-electrode voltage-clamp electrophysiological recording. Because hCNTs are Na^+-nucleoside symporters, one can measure the current generated by the Na^+ transport that is coupled with nucleoside transport. We injected Xenopus oocytes with mRNA coding for each of the hCNTs and measured inward Na^+ currents elicited by the addition of different nucleosides to the extracellular side.
(§1) The genes coding for the three hCNTs and vcCNT were cloned into a pGEM-HE vector. Plasmids were linearized using either SphI or NheI, and mRNA was transcribed using the mMESSAGE mMACHINE T7 Transcription Kit (Ambion, Grand Island, NY). Defolliculated Xenopus laevis oocytes were purchased from Ecocyte Bioscience (Austin, TX). Individual oocytes were injected with 40 ng of mRNA using a 10-μl microdispenser (Drummond Scientific, Broomall, PA) fitted with a tapered glass pipette tip and incubated at 17 °C for 4–5 days in ND96 buffer (96 mM NaCl, 2 mM KCl, 1 mM MgCl2, 1.8 mM CaCl2, and 5 mM HEPES pH 7.5) with 0.1% penicillin and streptomycin before recording.
The oocyte-recording chamber was gravity-perfused with ND96 buffer at a rate of 2 ml/min. Membrane currents were measured using an Oocyte Clamp (OC-725C; Warner Instruments, Hamden, CT). Individual oocytes were penetrated with two microelectrodes filled with 3 M KCl (0.5–1.0 MΩ). All electrophysiological experiments were conducted at room temperature. The OC-725C Oocyte Clamp was computer-interfaced via an Axon Digidata 1550 and controlled by Axoscope software (Molecular Devices, Sunnyvale, CA). The current signals were filtered at 20 Hz and sampled at intervals of 20 ms. The signals were filtered at 0.5 Hz by use of pCLAMP 10.4 software for data presentation. […] Cells were discarded if resting membrane potentials were unstable or more positive than −30 mV. Oocyte membrane potentials were clamped at −90 mV for holding potentials to measure transporter-generated currents. All data are shown as means ± SEM.
In general terms: Two-electrode voltage clamp holds a large cell at a set potential and records current.

Another assay concerns the target hCNT1 (353V/424L) (Homo sapiens, UniProt O00337, L353V/V424L). The experiment in a line: two-electrode voltage-clamp total charge in Xenopus oocytes expressing hCNT1 (353V/424L). It is filed as cell-based. The settings on record: mean of Exp. 1-8.
Excerpt: Figure 6. […] (A) Model of hCNT3 nucleo-pocket. […] (B) Model of hCNT1 nucleo-pocket. […] (C) Hypothetical alternating-access mechanism of vcCNT. A cartoon representation of the different conformational states along the transport cycle is depicted. The transport domain (including HP1, HP2, TM4b, and TM7b) and TM6 are shown as cylinders. […] The nucleo-pocket in the inward-occluded conformation (bottom right) is located between TM6 and TM4 and is marked with a green star. The inward-occluded conformation is derived from the crystal structures of vcCNT. All other conformations are purely hypothetical. The transition between inward- and outward-facing conformations has been proposed to be achieved by a rigid-body movement of the transport domain across TM6 ([Johnson et al., 2012]). Extracellular and intracellular gating likely involves slight rearrangements of HP2/TM4b and HP1/TM7b, respectively. […] See Figure 6—source data 1 for total charge source data. DOI: http://dx.doi.org/10.7554/eLife.03604.024 Figure 6—source data 1. Total charge data. Total charge transported (μC) was calculated as the area under the curve of the current trace after application of the indicated nucleoside to hCNT-expressing Xenopus oocytes. Each row represents a separate experiment done using a different oocyte. The ratios of the total charge transported for the nucleosides are shown in the last columns.
as §1
The oocyte-recording chamber was gravity-perfused with ND96 buffer at a rate of 2 ml/min. Membrane currents were measured using an Oocyte Clamp (OC-725C; Warner Instruments, Hamden, CT). Individual oocytes were penetrated with two microelectrodes filled with 3 M KCl (0.5–1.0 MΩ). All electrophysiological experiments were conducted at room temperature. The OC-725C Oocyte Clamp was computer-interfaced via an Axon Digidata 1550 and controlled by Axoscope software (Molecular Devices, Sunnyvale, CA). The current signals were filtered at 20 Hz and sampled at intervals of 20 ms.

The next assay concerns the target vcCNT (Vibrio cholerae, UniProt Q9KPL5). The experiment in a line: biochemical. Format: binding. Particulars: for mAnisotropy: [pyrrolo-gemcitabine] 2.00 μM.

Sequence of vcCNT (Q9KPL5 entry or part of it): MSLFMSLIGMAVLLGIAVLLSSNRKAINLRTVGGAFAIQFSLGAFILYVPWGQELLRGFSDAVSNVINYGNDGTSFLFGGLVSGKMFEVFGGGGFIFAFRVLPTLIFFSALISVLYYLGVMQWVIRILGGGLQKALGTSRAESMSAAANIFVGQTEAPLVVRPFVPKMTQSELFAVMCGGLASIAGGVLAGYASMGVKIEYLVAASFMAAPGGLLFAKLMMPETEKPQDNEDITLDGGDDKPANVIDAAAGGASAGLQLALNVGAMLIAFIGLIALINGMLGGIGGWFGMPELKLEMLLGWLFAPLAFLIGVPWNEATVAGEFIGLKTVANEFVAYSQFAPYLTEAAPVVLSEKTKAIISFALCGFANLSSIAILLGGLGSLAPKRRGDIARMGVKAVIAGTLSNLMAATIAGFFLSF
Sequence of hCNT1 (353V/424L) (O00337 whole entry L353V/V424L, the tested form may be a part): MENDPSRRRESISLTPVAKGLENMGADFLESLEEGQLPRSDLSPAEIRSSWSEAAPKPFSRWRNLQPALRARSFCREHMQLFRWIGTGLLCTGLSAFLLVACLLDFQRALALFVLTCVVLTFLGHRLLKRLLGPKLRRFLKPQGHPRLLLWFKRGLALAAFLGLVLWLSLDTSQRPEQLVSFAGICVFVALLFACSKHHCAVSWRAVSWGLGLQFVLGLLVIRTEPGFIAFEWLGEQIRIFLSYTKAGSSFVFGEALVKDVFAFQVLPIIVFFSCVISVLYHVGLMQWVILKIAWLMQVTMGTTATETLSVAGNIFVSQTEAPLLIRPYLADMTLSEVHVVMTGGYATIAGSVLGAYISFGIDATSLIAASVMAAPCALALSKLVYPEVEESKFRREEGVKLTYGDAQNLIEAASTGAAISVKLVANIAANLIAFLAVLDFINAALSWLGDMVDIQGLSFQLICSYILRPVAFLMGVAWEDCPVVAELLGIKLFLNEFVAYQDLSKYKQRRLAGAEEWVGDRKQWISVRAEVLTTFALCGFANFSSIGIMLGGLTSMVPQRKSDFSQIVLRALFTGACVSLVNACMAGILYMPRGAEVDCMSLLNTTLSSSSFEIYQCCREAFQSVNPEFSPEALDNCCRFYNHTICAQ

Usually Kd stands for the concentration at which binding is half-saturated. For the compound `Cc1cc2cn([C@@H]3O[C@H](CO)[C@@H](O)C3(F)F)c(=O)nc2[nH]1` [pyrrolo-gemcitabine], the “Total charge transported, Mean” value worked out at 0.823 μC at hCNT1 (200 μM nucleoside, hCNT1-expressing Xenopus oocytes, mean of Exp. 1-11) and 0.255 μC at hCNT1 (353V/424L) (400 μM nucleoside, hCNT1 (353V/424L)-expressing Xenopus oocytes). The “total charge uptake higher than gemcitabine” value on hCNT1 (fold, hCNT1 oocytes, 200 μM) is reported as “sevenfold”. Moreover, the “Qpyr-gem/Qgem, Mean” value at hCNT1 (ratio of total charge, 200 μM each, hCNT1, mean of Exp. 1-11) was found to be 6.829; on hCNT1 (353V/424L) (ratio of total charge, 400 μM each, hCNT1 (353V/424L)), 0.385. Further, the mAnisotropy on vcCNT ([vcCNT] 0 μM) is 44.1 and 33.7 and 35.1; on vcCNT ([vcCNT] 1.0 μM) it was 45.4 and 36.3 and 43.5; at vcCNT ([vcCNT] 2.5 μM), 55.8 and 48.4 and 48.8; at vcCNT ([vcCNT] 5.0 μM) it was 72.7 and 68.7 and 59.5; at vcCNT ([vcCNT] 10 μM) it was 92.3 and 80.0 and 79.5; at vcCNT ([vcCNT] 25 μM), 127.1 and 118.0 and 110.9. Also, the mAnisotropy is 153.7 and 139.6 and 136.3 at vcCNT ([vcCNT] 50 μM); 173.8 and 165.0 at vcCNT ([vcCNT] 100 μM); 187.8 and 174.6 on vcCNT ([vcCNT] 200 μM). For the same compound, the Kd at vcCNT (direct titration of fluorescent nucleoside with vcCNT, single-site model, mean ± SEM, read-out: KD) is 24 µM and 23.5 µM. Also, the “decrease of KD relative to gemcitabine” value at vcCNT (vcCNT) is recorded as approximately 60 fold.
